Data from patent US20040002117A1 (priority 1998, published 2004).

Experiments:
[1] = biological target: calcineurin (Homo sapiens, UniProt Q08209, L343A/M347D/Y341S); test: 1H NMR titration spectroscopy binding experiments; settings: 10 μM compound, 20 μM calcineurin, 25° C., buffered D2O
Experimental: T2-filtered ^1H NMR spectra were obtained on a Bruker Avance 600 instrument with CryoPhobe using low-power presaturation of residual water. Preacquisition delays included up to five spin echos to suppress fast-relaxing broad protein resonances and were times to yield in-phase signals for J-coupled spins. Chemical shifts were referenced to internal standard 5 μM 2,2-dimethylsilapentane-5-sulfonic acid (DSS).

[2] = biological target: T1, recombinant human calcineurin catalytic domain, calcineurin(2-347) (Homo sapiens, UniProt Q08209, L343A/M347D/Y341S); test: fluorescence polarization competition assay, displacement of OG-VIVIT from calcineurin; assay type: binding; settings: for displacement of OG-VIVIT from calcineurin: at high concentrations, 1 μM calcineurin, 60 nM OG-VIVIT; for IC50: calcineurin-VIVIT peptide interaction, read-out: Estimated IC50
T1 construct: GST (N, cleaved yes); made in house; host or cells: E. coli strain DH5α
Experimental: Samples were analyzed as described in the preceding paragraph, and the resulting polarization data were plotted against the concentration of unlabelled VIVIT peptide, as shown in FIG. 8B.
The library stocks were dissolved at a nominal concentration of 10 mM in DMSO, and formatted for convenient robotic transfer on 384-well plates at the Institute of Chemistry and Cell Biology, Harvard Medical School. To initiate the competition assay, 40 nl volumes were pin-transferred from each well of a library stock plate to the corresponding wells of an assay plate, utilizing a robotic device. After a minimum 10 min incubation at room temperature to allow the binding to reach equilibrium, fluorescence polarization data were collected employing an Analyst plate reader (Molecular Devices).
Stocks of candidate inhibitor compounds and their structural analogues were purchased from ChemBridge or Asinex. The structure and purity of individual compounds were verified by ^1H NMR, mass spectrometry, or thin-layer chromatography. […] INCA1, INCA2, and INCA6 can be represented generally as follows: […]

[3] = biological target: T2, calcineurin (Homo sapiens, UniProt Q08209); test: calcineurin phosphatase assay with phosphorylated RII peptide, Malachite green detection; assay type: biochemical; settings: 100 μM INCA compound or 100 μM VIVIT peptide; 6.8 nM calcineurin, 15 min at 25° C.
[4] = biological target: T3, dephosphorylation of NFAT by calcineurin (Homo sapiens, UniProt Q08209); test: in vitro dephosphorylation of NFAT1 in C1.7W2 T cell lysates by recombinant calcineurin; assay type: biochemical; settings: 500 nM calcineurin, 600 nM calmodulin, 30 minutes at 30° C.; INCA2 at micromolar concentrations
Experimental: Dephosphorylation produces a change in mobility that is visible as a shift in the immunostained NFAT band.
Cell lysates were made from C1.7W2 T cells washed in PBS/2 mM EGTA, 10 mM iodoacetamide, collected by centrifugation, and resuspended at 80×10^6 cells/ml in chilled lysis buffer consisting of 10 mM KAc, 2 mM MgAc2, 2 mM EGTA, 100 mM HEPES/NaHEPES pH 7.4, 0.2% NP-40, 10 mM iodoacetamide, 2 mM PMSF, 20 μg/ml aprotinin, and 50 μM leupeptin. After incubation for 10 minutes on wet ice, the nuclei and cell debris were pelleted in a refrigerated microcentrifuge at 4° C. by centrifugation for 5 minutes at 13,500 rpm, and the resulting supernatant recovered with a prechilled pipette tip, rapidly frozen using a dry ice/ethanol bath, and stored at −80° C.
The dephosphorylation reaction was initiated by addition of 0.6 μl lysate per 20 μl reaction.

[5] = biological target: T2, calcineurin; test: in vitro dephosphorylation of recombinant 32P-labelled RIIα protein by calcineurin; assay type: biochemical
Experimental: Dephosphorylation was allowed to proceed during 45 min at 30° C., samples were resolved by SDS-PAGE, and the gel was stained with Coomasie Brilliant Blue, dried, and autoradiographed. A phosphorimager was used to quantitate the level of ^32P in each lane.

[6] = biological target: T2, calcineurin; test: dephosphorylation of GST-Tau protein by calcineurin; assay type: biochemical
[7] = biological target: T2, calcineurin; test: dephosphorylation of 32P-RII phosphopeptide by calcineurin; assay type: biochemical; settings: 32P-RII phosphopeptide 100 μM, calcineurin 100 nM; peptides 30 μM to 400 μM; FK506/FKBP12 10 μM/10 μM
Experimental: The dephosphorylation reaction was allowed to proceed for 30 min at 30° C. after which the reaction was stopped by addition of excess 0.1% trichloroacetic acid, substrate peptide was removed by adsorption onto a cation exchange resin (AG50W; BioRad Laboratories, Hercules, Calif.), and released ^32P label in the supernatant was measured in a liquid scintillation counter.

[8] = biological target: T4, dephosphorylation of NFAT1 by calcineurin (Homo sapiens, UniProt Q08209); test: dephosphorylation of HA-NFAT1(1-460)-GFP in HEK-293 cytosolic extracts by calcineurin/calmodulin; assay type: biochemical; settings: wild type 13-mer 100 μM or 400 μM; mutant 400 μM; calcineurin/calmodulin 100 nM to 900 nM
Experimental: (§1) The HA-tagged N-terminal domains of NFAT1 and NFAT4 were expressed as the fusion proteins HA-NFAT1(1-460)-GFP and HA-NFAT4(1-407)-GFP in HEK-293 cells. […] Dephosphorylation was allowed to proceed for 30 min at 30° C., and samples were analyzed by SDS-PAGE and Western blotting with anti-HA antibody.

[9] = biological target: T3, dephosphorylation of NFAT by calcineurin; test: calcineurin-mediated dephosphorylation of HA-NFAT1(1-460)-GFP in HeLa cell lysates; assay type: biochemical; settings: 200 nM calcineurin, 600 nM calmodulin, 30 min at 30 C.; peptide amounts as in FIG. 5B
Experimental: The phosphorylation status of NFAT was evaluated by SDS-polyacrylamide gel electrophoresis and Western blotting with anti-HA antibody 12CA5.

[10] = biological target: calcineurin binding to GST-NFAT1 (Homo sapiens, UniProt Q08209); test: binding of activated calcineurin to GST-NFAT1(1-415), glutathione-Sepharose collection and Western blotting
[11] = biological target: T4, dephosphorylation of NFAT1 by calcineurin; test: in vitro dephosphorylation of NFAT1(1-460)-GFP by calcineurin in HeLa cytosolic extracts, Western blotting; assay type: biochemical
Experimental: Samples were resolved by SDS-PAGE and dephosphorylation was assessed with anti-HA antibody 12CA5. […] Slightly higher concentrations of the peptides were required to inhibit the in vitro dephosphorylation than were required to inhibit NFAT-calcineurin binding, presumably due to some degradation of the peptides by enzymes present in the cell extracts.

[12] = biological target: dephosphorylation of NFAT4 by calcineurin (Homo sapiens, UniProt Q08209); test: dephosphorylation of HA-NFAT4(1-407)-GFP in HEK-293 cytosolic extracts by calcineurin/calmodulin; assay type: biochemical; settings: wild type 13-mer 100 μM or 400 μM; mutant 400 μM; calcineurin/calmodulin 100 nM to 900 nM
Experimental: as §1

[13] = biological target: calcineurin binding to NFAT1 (Homo sapiens, UniProt Q08209); test: 125I-calcineurin binding to GST-NFAT1(1-400) immobilized on glutathione-Sepharose beads; settings: at concentrations up to 100 μM
[14] = test system: NFAT-dependent reporter gene (3×NFAT-Luc) in Jurkat cells; test: 3×NFAT-Luc luciferase reporter in transfected Jurkat cells; assay type: cell-based, human; settings: GFP fusion expressed in Jurkat cells; PMA and ionomycin 6 hours
Experimental: Twenty-four hours after transfection, cells were left unstimulated, stimulated for 6 hours with 20 nM phorbol 12-myristate 13-acetate (PMA) and 1 μM ionomycin, or stimulated for 6 hours with 0.2 μg/ml immobilized anti-CD3 (HIT3a, Pharmingen) and 0.5 μg/ml soluble anti-CD28 (CD28.2, Pharmingen). CsA was added 30 min before the stimuli. Luciferase activity in cell lysates was measured using a luciferase assay system (Promega) and was normalized to the concentration of hGH in the cell culture medium determined with a radioimmunometric assay kit (Hybritech).
In the right panel are data from Jurkat cells that had been cotransfected with a 3×NFAT-Luc reporter plasmid and with expression plasmids encoding murine NFAT1, human NFAT2, or human NFAT4 as indicated. Twenty-four hours after transfection, cells were left unstimulated (Unstimulated; open bars) or were stimulated for 6 hours with PMA and ionomycin (PMA+iono; solid bars), cell lysates were prepared, and luciferase activity attributable to endogenous NFAT (Endog.) or to overexpressed NFAT proteins was measured.
Twenty-four hours after transfection, cells were left untreated (open bars) or were stimulated for 6 hours with PMA and ionomycin (solid bars).

[15] = peptide concentrations in the range from 16 μM to 400 μM, calcineurin 200 nM, calmodulin 600 nM, 30 min at 30° C.

Q: Which “binding to calcineurin in the absence of VIVIT peptide” value [1] does the source give for `CC(=O)C(C(C)=O)C1=C(Cl)C(=O)C(=O)c2c(C(=O)c3ccccc3)coc21` [INCA1] here?
A: direct molecular interaction

Q: And the Ki [2]?
A: 500 to 2000 nM

Q: And the “displacement of OG-VIVIT from calcineurin” value [2]?
A: complete

Q: What about the IC50 [2] of the same compound?
A: 1000 nM

Q: `O=C1C(Cl)=C(Cl)C(=NS(=O)(=O)c2ccccc2)c2ccccc21` [INCA2] was tested. Which “release of free phosphate from RII phosphopeptide” value [3] did it give?
A: not affected

Q: And the “binding to calcineurin in the absence of VIVIT peptide” value [1]?
A: direct molecular interaction

Q: What about the Ki [2] of the same compound?
A: 100 to 500 nM

Q: What about the “displacement of OG-VIVIT from calcineurin” value [2] of the same compound?
A: complete

Q: And the IC50 [2]?
A: 3000 nM

Q: And the “dephosphorylation of NFAT by calcineurin in vitro” value [4]?
A: blocked

Q: `O=P([O-])([O-])OP(=O)([O-])[O-].[Na+].[Na+].[Na+].[Na+]` [sodium pyrophosphate, reference compound] was tested. Which “dephosphorylation of NFAT by calcineurin in vitro” value [4] did it give?
A: no dephosphorylation

Q: What about the “inhibition of dephosphorylation of RIIα protein by control inhibitors” value ([5]; sodium pyrophosphate 20 mM, CsA/cyclophilin […] μM/5 μM, FK506/FKBP12 4 μM/4 μM) of the same compound?
A: efficiently inhibited

Q: What about the “inhibition of dephosphorylation of GST-Tau protein by control inhibitors” value ([6]; sodium pyrophosphate 10 mM, CsA/cyclophilin […] μM/5 μM) of the same compound?
A: efficiently inhibited

Q: What does the source list for `CC[C@H](C)[C@H](NC(=O)[C@H](CCCNC(=N)N)NC(=O)[C@@H]1CCCN1C(=O)[C@H](CO)NC(=O)[C@@H]1CCCN1C(=O)CNC(=O)[C@@H](N)CO)C(=O)N[C@@H](CCC(=O)O)C(=O)N[C@H](C(=O)N[C@H](C(=O)N1CCC[C@H]1C(=O)N[C@@H](CO)C(=O)N[C@@H](Cc1c[nH]cn1)C(=O)O)[C@@H](C)O)[C@@H](C)CC` [wild type 13-mer peptide]?
A: inhibition of dephosphorylation of the RII peptide by calcineurin [7]: Neither of the SPRIEITPS peptides inhibited; inhibition of dephosphorylation of HA-NFAT1(1-460)-GFP [8]: inhibited dephosphorylation; inhibition of NFAT dephosphorylation [9]: effective; inhibition of the binding of activated calcineurin to GST-NFAT1 ([10]; 200 nM calcineurin, 600 nM calmodulin, 2 mM CaCl2, peptide amounts as in FIG. 5A): inhibited; inhibition of dephosphorylation of NFAT1 by calcineurin in vitro [11, 15]: inhibited; inhibition of dephosphorylation of HA-NFAT4(1-407)-GFP [12]: inhibited dephosphorylation

Q: With `CC[C@H](C)[C@H](NC(=O)[C@H](CCCNC(=N)N)NC(=O)[C@@H]1CCCN1C(=O)[C@H](CO)NC(=O)[C@@H]1CCCN1C(=O)CNC(=O)[C@H](CO)NC(=O)[C@H](C)NC(=O)CNC(=O)[C@H](C)NC(=O)[C@@H]1CCCN1C(=O)[C@@H](N)CCCCN)C(=O)N[C@@H](CCC(=O)O)C(=O)N[C@H](C(=O)N[C@H](C(=O)N1CCC[C@H]1C(=O)N[C@@H](CO)C(=O)N[C@@H](Cc1c[nH]cn1)C(=O)N[C@@H](CCC(=O)O)C(=O)N[C@@H](CC(C)C)C(=O)N[C@@H](CCSC)C(=O)N[C@@H](CCC(N)=O)C(=O)N[C@@H](C)C(=O)NCC(=O)NCC(=O)N[C@@H](Cc1ccc(O)cc1)C(=O)O)[C@@H](C)O)[C@@H](C)CC` [wild type 26-mer peptide] as the compound, how does the “inhibition of dephosphorylation of the RII peptide by calcineurin” value [7] read?
A: Neither of the SPRIEITPS peptides inhibited

Q: What about the “inhibition of dephosphorylation of RIIα protein” value ([5]; peptide 20 μM and 100 μM, calcineurin 200 nM, 45 min at 30° C.) of the same compound?
A: did not inhibit

Q: And the inhibition at 500 µM ([5]; peptide 500 μM)?
A: 18%

Q: What about the “inhibition of dephosphorylation of NFAT1” value ([11]; 500 μM peptide) of the same compound?
A: fully inhibited

Q: What about the “inhibition of dephosphorylation of NFAT1 by calcineurin in vitro” value [11, 15] of the same compound?
A: inhibited

Q: And the “inhibition of dephosphorylation of GST-Tau protein by calcineurin” value ([6]; peptide 20 μM and 100 μM, calcineurin 200 nM, 90 min at 30° C.)?
A: not inhibited

Q: And the inhibition at 500 µM ([6]; read-out: inhibition of dephosphorylation of GST-Tau protein by calcineurin, peptide 500 μM)?
A: 10%

Q: What does the source list for “CM2 mutant 26-mer peptide: 26-mer control peptide with R112 to A, E114 to A, T116 to A substitutions and appended tyrosine (KPAGASGPSPAIAIAPSHELMQAGGY) [reference compound]”?
A: inhibition of dephosphorylation of HA-NFAT1(1-460)-GFP [8]: little or no inhibition; inhibition of calcineurin binding to GST-NFAT1 ([10]; peptide 100 μM): did not inhibit; inhibition of dephosphorylation of NFAT1 by calcineurin in vitro ([11]; only at concentrations above 400 μM): only marginally inhibitory; inhibition of the NFAT1-calcineurin interaction [13]: did not inhibit; inhibition of dephosphorylation of HA-NFAT4(1-407)-GFP [12]: little or no inhibition

Q: How did the “block of induced luciferase expression, endogenous NFAT” value [14] turn out when “GFP-SPRIEIT: GFP-SPRIEIT fusion protein, expression vector previously described (Aramburu et al 1998)” was run?
A: partially blocked
